How the values were obtained:
Glycine receptor = Glycine receptor (Rattus norvegicus, UniProt P22771+P24524+P07727+P20781); type: cell membranes, Wistar, Spinal cord, Membrane
Thromboxane-A synthase = molecular target: T1, Thromboxane-A synthase (Homo sapiens, UniProt P24557); assay: biochemical; type: tissue-based, Platelet; details: platelet;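 note: enzyme inhibition assay with PGH2 supplied as substrate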
T1 sequence (P24557 whole entry): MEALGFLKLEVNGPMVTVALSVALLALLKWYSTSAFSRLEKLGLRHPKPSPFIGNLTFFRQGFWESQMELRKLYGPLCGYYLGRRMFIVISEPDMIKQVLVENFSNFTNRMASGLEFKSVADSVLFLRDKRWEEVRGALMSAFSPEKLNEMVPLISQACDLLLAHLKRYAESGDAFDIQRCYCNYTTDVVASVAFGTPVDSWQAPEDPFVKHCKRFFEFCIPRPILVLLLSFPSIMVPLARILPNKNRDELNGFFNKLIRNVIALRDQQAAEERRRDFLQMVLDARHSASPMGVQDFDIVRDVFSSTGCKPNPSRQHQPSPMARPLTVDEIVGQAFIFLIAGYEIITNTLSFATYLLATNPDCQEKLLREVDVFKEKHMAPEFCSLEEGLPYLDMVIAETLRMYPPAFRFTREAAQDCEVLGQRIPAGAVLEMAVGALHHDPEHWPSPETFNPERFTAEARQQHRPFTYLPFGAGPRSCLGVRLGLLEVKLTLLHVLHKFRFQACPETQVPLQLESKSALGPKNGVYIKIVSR

Leukotriene C4 synthase = molecular target: T2, Leukotriene C4 synthase (Cavia porcellus, UniProt A6XA80); type: tissue-based, Lung;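 note: enzyme inhibition assay of leukotriene C4 synthase, using LTA4 as the substrate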
T2 sequence (A6XA80 whole entry): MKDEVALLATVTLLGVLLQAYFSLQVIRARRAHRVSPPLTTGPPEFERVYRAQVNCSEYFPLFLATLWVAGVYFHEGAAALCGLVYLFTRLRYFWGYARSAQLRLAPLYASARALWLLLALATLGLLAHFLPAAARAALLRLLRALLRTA

[1] = molecular target: T3, 3-hydroxy-3-methylglutaryl-coenzyme A reductase (Homo sapiens, UniProt P04035); design: species or system Escherichia coli;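 note: enzyme inhibition assay of HMG-CoA reductase using radiolabeled [14C]HMG-CoA as substrate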
T3 sequence (P04035 whole entry): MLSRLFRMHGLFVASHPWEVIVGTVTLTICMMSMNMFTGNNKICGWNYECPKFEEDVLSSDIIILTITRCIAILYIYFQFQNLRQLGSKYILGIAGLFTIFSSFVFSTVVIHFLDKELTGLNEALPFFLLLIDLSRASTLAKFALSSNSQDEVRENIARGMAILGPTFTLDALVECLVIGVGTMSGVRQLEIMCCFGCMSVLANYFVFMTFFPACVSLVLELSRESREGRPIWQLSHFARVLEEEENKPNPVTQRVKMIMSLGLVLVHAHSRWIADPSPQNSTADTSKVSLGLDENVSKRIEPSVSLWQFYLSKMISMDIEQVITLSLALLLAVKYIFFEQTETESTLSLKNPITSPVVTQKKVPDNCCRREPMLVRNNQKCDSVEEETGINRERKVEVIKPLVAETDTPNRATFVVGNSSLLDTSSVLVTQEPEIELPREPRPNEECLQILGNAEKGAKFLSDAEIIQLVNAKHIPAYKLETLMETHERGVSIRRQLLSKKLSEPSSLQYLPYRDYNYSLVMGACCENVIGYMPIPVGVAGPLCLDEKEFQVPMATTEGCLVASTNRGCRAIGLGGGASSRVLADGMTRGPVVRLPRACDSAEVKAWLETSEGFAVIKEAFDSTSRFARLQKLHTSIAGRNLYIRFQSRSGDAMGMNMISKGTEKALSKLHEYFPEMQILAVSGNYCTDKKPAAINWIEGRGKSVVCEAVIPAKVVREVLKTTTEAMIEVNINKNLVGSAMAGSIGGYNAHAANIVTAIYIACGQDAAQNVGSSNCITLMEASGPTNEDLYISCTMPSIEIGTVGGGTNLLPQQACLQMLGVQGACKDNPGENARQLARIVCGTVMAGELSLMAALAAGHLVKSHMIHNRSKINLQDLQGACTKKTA

[2] = molecular target: T4, Neuropeptide Y receptor type 1 (Homo sapiens, UniProt P25929); type: cell membranes, Membrane; details: sk-n-mc
T4 sequence (P25929 whole entry): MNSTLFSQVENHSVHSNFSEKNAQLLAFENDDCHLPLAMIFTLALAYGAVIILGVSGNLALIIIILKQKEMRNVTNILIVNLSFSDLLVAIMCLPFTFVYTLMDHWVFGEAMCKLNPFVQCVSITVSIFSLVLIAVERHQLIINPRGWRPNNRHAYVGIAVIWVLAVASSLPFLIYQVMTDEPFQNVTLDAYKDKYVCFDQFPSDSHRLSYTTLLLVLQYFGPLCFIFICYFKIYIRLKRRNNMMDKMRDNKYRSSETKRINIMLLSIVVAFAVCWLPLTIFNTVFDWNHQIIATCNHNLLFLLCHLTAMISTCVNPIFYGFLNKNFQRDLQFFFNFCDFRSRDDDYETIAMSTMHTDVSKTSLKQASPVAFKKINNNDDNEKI

Cytochrome P450 1A2 = molecular target: T5, Cytochrome P450 1A2 (Homo sapiens, UniProt P05177); details: bti-tn-5b1-4
T5 sequence (P05177 whole entry): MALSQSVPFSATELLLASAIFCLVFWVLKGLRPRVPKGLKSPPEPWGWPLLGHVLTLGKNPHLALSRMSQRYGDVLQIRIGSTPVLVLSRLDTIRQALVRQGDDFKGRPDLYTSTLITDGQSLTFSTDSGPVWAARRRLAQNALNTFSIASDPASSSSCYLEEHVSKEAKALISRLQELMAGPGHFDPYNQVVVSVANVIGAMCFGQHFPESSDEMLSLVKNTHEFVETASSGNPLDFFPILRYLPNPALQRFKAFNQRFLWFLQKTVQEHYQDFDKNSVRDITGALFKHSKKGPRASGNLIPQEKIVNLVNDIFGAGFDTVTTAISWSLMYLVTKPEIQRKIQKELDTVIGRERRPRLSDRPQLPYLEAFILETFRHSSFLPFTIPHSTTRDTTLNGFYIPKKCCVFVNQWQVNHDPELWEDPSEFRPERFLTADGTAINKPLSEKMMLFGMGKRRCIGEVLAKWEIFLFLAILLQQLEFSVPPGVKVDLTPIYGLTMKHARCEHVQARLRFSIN
Note: in other assays of this panel Not Active means under 50% inhibition at 10 µM.

NC(=O)c1cnccn1 [PYRAZINAMIDE]
Not Active: IC50 (Glycine receptor) | IC50 (Thromboxane-A synthase) | IC50 (Leukotriene C4 synthase) | IC50 [1] | IC50 [2] | IC50 (Cytochrome P450 1A2) | Ki (Cytochrome P450 1A2)

OC(CCN1CCCCC1)(c1ccccc1)C1CCCCC1 (configuration not stated) [TRIHEXYPHENIDYL]
Not Active: IC50 (Glycine receptor) | IC50 (Thromboxane-A synthase) | IC50 (Leukotriene C4 synthase) | IC50 [1] | IC50 [2] | IC50 (Cytochrome P450 1A2) | Ki (Cytochrome P450 1A2)

Cc1cc2cc3c(C)cc(=O)oc3c(C)c2o1 [TRIOXSALEN]
Not Active: IC50 (Glycine receptor) | IC50 (Thromboxane-A synthase) | IC50 (Leukotriene C4 synthase) | IC50 [1] | IC50 [2] | IC50 (Cytochrome P450 1A2) | Ki (Cytochrome P450 1A2)

CCCC(CCC)C(=O)O [VALPROIC ACID]
Not Active: IC50 (Glycine receptor) | IC50 (Thromboxane-A synthase) | IC50 (Leukotriene C4 synthase) | IC50 [1] | IC50 [2] | IC50 (Cytochrome P450 1A2) | Ki (Cytochrome P450 1A2)

CCC1=C[C@@H]2CN(C1)Cc1c([nH]c3ccccc13)[C@@](C(=O)OC)(c1cc3c(cc1OC)N(C)[C@H]1[C@@](O)(C(=O)OC)[C@H](OC(C)=O)[C@]4(CC)C=CCN5CC[C@]31[C@@H]54)C2 [VINORELBINE]
Not Active: IC50 (Glycine receptor) | IC50 (Thromboxane-A synthase) | IC50 (Leukotriene C4 synthase) | IC50 [1] | IC50 [2] | IC50 (Cytochrome P450 1A2) | Ki (Cytochrome P450 1A2)

CADMIUM DICHLORIDE
Not Active: IC50 (Glycine receptor) | Ki (Glycine receptor) | IC50 (Thromboxane-A synthase) | Ki (Thromboxane-A synthase) | IC50 (Leukotriene C4 synthase) | Ki (Leukotriene C4 synthase) | IC50 [1] | Ki [1] | IC50 [2] | Ki [2] | IC50 (Cytochrome P450 1A2) | Ki (Cytochrome P450 1A2)
